Test results from patent publication US10381110B2, “Molecules” (University of Dundee, priority 2010, dated 2019).

Legend:
dopamine D4 [1] = target: T1, dopamine D4 (Homo sapiens, UniProt P21917); conditions: previously reported analogue; read-out: dopamine D4 Ki (literature); cited from earlier work
T1 sequence (P21917 1-419): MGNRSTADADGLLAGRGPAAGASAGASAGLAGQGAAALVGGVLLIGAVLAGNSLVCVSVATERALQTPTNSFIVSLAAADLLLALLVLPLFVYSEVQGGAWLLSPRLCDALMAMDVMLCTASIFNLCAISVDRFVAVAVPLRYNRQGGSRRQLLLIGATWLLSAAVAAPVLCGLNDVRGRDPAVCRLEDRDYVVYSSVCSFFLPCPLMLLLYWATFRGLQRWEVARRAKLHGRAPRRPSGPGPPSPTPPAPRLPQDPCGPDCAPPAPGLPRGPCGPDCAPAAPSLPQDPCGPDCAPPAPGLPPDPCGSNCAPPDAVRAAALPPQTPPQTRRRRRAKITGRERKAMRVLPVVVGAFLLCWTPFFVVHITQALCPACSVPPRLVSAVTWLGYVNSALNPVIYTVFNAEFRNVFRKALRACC

dopamine D2 [2] = target: T2, dopamine D2 (Homo sapiens, UniProt P14416); conditions: read-out: dopamine D2 Ki (literature); previously assayed analogue; cited from earlier work
Target sequence in this assay (P14416 whole entry): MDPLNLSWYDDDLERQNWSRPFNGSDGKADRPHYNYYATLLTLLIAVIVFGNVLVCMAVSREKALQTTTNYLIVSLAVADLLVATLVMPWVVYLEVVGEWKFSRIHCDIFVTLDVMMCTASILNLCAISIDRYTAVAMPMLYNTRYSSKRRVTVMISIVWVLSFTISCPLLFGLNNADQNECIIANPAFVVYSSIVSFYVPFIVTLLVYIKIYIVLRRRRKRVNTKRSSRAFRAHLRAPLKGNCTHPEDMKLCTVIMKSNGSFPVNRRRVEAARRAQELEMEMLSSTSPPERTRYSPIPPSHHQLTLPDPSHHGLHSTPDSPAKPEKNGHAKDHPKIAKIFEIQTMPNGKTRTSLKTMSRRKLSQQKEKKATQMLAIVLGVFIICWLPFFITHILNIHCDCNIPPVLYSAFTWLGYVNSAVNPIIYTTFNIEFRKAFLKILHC

5HT1a = target: T3, 5HT1a (Homo sapiens, UniProt P08908); test: Secondary radioligand binding assay (Ki)
T3 sequence (P08908 1-422): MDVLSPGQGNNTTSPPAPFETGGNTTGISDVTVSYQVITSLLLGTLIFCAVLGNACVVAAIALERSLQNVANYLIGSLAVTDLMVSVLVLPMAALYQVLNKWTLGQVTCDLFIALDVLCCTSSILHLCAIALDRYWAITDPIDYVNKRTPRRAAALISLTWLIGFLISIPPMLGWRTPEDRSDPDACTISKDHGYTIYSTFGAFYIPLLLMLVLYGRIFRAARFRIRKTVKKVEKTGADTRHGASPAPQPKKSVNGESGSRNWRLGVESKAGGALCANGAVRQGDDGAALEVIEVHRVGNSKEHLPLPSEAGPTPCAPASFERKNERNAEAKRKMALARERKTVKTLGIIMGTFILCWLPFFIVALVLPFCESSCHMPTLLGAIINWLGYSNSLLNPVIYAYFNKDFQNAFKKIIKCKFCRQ

α1A (Alpha1A) = target: T4, α1A (Alpha1A) (Homo sapiens, UniProt P35348); test: Secondary radioligand binding assay (Ki)
T4 sequence (P35348 1-466): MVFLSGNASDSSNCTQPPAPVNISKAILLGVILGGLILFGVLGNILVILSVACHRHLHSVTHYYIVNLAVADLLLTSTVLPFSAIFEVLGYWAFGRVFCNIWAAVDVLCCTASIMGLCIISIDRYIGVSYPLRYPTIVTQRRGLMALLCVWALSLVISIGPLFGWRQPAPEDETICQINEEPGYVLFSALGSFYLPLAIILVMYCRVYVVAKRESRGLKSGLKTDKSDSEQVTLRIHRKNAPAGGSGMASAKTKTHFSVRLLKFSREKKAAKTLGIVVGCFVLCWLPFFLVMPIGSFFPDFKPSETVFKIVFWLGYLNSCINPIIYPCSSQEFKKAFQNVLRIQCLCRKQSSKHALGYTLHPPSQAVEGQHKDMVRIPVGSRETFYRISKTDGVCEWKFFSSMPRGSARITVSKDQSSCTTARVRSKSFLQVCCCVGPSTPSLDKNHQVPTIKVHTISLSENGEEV

5-HT2B = 5-HT2B (Homo sapiens, UniProt P41595); test: Secondary radioligand binding assay (Ki)
Sequence of 5-HT2B (P41595 whole entry, species assumed): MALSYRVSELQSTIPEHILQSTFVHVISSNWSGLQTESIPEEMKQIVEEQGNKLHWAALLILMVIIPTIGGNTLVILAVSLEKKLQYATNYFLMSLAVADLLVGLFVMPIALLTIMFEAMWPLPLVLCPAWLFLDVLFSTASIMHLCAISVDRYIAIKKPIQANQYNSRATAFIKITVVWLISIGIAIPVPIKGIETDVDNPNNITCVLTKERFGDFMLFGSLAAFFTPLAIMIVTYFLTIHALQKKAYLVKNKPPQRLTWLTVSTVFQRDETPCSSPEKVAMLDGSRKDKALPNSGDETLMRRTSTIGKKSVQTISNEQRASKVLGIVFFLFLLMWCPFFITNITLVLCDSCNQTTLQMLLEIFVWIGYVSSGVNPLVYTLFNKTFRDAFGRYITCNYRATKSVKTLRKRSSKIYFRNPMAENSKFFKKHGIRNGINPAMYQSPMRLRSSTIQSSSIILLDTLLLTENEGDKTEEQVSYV

5-HT7 = 5-HT7 (Homo sapiens, UniProt P34969); test: Secondary radioligand binding assay (Ki)
Sequence of 5-HT7 (P34969 whole entry, species assumed): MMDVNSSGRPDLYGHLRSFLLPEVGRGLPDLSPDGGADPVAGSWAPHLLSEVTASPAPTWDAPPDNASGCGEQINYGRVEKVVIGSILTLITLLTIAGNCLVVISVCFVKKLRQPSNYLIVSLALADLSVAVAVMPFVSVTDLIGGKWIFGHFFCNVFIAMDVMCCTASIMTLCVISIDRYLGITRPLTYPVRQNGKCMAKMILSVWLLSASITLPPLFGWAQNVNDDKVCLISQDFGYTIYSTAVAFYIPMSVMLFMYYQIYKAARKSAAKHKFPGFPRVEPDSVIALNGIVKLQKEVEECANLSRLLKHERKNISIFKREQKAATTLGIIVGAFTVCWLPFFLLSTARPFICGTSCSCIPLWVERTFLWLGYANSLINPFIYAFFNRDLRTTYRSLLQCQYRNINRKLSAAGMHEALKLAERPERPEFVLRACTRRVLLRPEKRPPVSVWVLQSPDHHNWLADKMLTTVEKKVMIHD

Alpha1A = target: T5, Alpha1A (Homo sapiens, UniProt P35348); test: Primary radioligand binding assay (NIMH PDSP); conditions: primary radiobinding assay, [3H]Prazosin; also: test concentration or dose not given here
T5 sequence (P35348 1-466): T4 sequence (P35348 1-466)

Alpha1B = target: T6, Alpha1B (Homo sapiens, UniProt P35368); test: Primary radioligand binding assay (NIMH PDSP); conditions: primary radiobinding assay, [3H]Prazosin; also: test concentration or dose not given here
T6 sequence (P35368 1-520): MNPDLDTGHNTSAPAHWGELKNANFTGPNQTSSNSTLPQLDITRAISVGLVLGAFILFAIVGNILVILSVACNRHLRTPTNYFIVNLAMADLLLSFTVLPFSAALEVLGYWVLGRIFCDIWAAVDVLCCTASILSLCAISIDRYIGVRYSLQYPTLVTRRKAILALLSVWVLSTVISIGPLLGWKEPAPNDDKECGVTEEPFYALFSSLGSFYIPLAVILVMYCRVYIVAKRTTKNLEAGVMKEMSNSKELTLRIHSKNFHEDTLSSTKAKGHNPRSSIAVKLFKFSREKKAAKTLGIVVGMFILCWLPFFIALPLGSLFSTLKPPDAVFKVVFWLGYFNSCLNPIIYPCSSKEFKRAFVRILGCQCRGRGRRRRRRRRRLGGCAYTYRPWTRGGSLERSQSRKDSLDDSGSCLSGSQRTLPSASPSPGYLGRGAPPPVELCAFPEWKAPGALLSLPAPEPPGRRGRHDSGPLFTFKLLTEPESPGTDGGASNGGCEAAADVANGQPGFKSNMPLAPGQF

Alpha1D = target: T7, Alpha1D (Homo sapiens, UniProt P25100); test: Primary radioligand binding assay (NIMH PDSP); conditions: primary radiobinding assay, [3H]Prazosin
T7 sequence (P25100 1-572): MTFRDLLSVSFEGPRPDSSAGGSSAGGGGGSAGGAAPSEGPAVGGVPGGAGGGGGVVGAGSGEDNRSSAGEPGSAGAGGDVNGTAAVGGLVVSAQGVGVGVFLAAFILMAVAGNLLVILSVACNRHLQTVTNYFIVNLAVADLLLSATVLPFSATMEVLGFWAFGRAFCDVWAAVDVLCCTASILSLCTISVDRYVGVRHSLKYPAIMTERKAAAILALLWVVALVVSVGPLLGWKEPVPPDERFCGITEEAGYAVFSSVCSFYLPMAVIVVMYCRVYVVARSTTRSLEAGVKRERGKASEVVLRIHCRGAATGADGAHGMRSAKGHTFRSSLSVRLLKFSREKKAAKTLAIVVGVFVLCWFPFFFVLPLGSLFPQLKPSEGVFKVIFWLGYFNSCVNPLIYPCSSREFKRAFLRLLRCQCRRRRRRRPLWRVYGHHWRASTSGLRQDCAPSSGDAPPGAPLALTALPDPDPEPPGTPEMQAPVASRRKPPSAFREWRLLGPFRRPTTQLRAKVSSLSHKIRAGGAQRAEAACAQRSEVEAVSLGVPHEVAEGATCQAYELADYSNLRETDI

dopamine D1 = dopamine D1 (Homo sapiens, UniProt P21728); test: Primary radioligand binding assay (NIMH PDSP); conditions: primary radiobinding assay, [3H]SCH233930; also: test concentration or dose not given here
Sequence of dopamine D1 (P21728 whole entry): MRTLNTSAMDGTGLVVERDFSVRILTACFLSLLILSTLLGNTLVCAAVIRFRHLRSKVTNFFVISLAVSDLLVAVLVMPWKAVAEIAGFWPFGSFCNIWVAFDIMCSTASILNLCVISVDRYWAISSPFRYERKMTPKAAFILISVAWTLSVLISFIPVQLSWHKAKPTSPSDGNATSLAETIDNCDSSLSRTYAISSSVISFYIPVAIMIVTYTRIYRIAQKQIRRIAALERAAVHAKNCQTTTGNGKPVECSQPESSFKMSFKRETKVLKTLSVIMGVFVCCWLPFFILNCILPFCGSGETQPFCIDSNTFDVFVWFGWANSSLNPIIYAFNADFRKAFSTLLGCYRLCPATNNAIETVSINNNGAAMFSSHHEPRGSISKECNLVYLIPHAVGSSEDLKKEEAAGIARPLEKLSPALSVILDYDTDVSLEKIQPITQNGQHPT

dopamine D2 [3] = target: T2, dopamine D2; test: Primary radioligand binding assay (NIMH PDSP); conditions: primary radiobinding assay, [3H]N-methylspiperone; as to D4 (% inh): test concentration or dose not given here
Target sequence in this assay (P14416 whole entry, species assumed): as the sequence (P14416 whole entry) above

dopamine D3 = dopamine D3 (Homo sapiens, UniProt P35462); test: Primary radioligand binding assay (NIMH PDSP); conditions: primary radiobinding assay, N-methylspiperone; also: test concentration or dose not given here
Sequence of dopamine D3 (P35462 whole entry): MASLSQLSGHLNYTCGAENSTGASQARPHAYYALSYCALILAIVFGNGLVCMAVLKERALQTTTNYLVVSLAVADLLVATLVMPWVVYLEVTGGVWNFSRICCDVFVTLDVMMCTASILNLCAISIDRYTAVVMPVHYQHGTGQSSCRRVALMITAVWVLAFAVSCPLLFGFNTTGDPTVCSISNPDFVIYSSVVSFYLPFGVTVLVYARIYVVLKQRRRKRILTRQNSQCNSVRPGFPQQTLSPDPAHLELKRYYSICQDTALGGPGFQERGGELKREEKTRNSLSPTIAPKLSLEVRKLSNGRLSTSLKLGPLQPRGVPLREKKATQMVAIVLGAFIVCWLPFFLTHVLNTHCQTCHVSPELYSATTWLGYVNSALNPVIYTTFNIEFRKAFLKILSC

dopamine D5 = dopamine D5 (Homo sapiens, UniProt P21918); test: Primary radioligand binding assay (NIMH PDSP); conditions: primary radiobinding assay, [3H]SCH233930; also: test concentration or dose not given here
Sequence of dopamine D5 (P21918 whole entry): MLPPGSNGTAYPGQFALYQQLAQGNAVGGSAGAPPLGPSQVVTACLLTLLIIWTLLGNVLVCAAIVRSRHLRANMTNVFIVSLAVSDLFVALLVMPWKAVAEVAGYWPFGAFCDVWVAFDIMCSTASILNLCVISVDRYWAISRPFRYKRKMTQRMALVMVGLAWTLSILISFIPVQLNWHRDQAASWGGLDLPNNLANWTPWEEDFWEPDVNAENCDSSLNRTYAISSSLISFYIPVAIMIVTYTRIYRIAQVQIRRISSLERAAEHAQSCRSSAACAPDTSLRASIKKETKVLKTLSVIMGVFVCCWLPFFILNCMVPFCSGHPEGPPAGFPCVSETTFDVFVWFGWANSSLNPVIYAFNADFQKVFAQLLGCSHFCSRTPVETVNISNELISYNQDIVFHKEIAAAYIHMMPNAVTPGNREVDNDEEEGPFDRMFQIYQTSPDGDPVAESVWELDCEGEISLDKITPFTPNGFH

dopamine D4 [4] = target: T1, dopamine D4; test: Primary radioligand binding assay (NIMH PDSP); conditions: primary radiobinding assay, N-methylspiperone; as to D4 (% inh): test concentration or dose not given here

Ki (5HT1a) | Ki (α1A (Alpha1A)) | Ki (5-HT2B) | Ki (5-HT7) | Alpha1A (% inh) (Alpha1A) | Alpha1B (% inh) (Alpha1B) | Alpha1D (% inh) (Alpha1D) | D1 (% inh) (dopamine D1) | D3 (% inh) (dopamine D3) | D5 (% inh) (dopamine D5) | Structure (SMILES) | Ki (dopamine D4 [1]) | Ki (dopamine D2 [2]) | D2 (% inh) (dopamine D2 [3]) | D4 (% inh) (dopamine D4 [4])
 |  |  |  |  |  |  |  |  |  | O=C1c2ccccc2CN1CCCCN1CCN(c2ccccc2)CC1 [2-(4-(4-Phenyl-1-piperazinyl)butyl)-1-isoindolinone] | 134 nM | 319 nM |  | 
8.43 µM | 2010 nM | 1450 nM | 2820 nM | 64.8 % inh | −19.8 % inh | 31.1 % inh | −1 % inh | 51 % inh | 18 % inh | CC1Cc2ccccc2N1C(=O)CN1CCN(c2ccccc2)CC1 (stereo not drawn) [STT-00185641] |  |  | 2 % inh | 
 |  |  |  |  |  |  |  |  |  | COc1cc2c(cc1OC)C(=O)C(CC1CCN(Cc3ccccc3)CC1)C2 (stereo not drawn) [donepezil, reference compound] |  |  | 18.6 % inh | 89.2 % inh
